Assay results reported in ChEMBL document CHEMBL3124815, “Discovery of a selective kinase inhibitor (TAK-632) targeting pan-RAF inhibition: design, synthesis, and biological evaluation of C-7-substituted 1,3-benzothiazole derivatives” (J Med Chem, 2013).

How the values were obtained:
[1] = molecular target: Serine/threonine-protein kinase B-raf (Homo sapiens, UniProt P15056); test: Inhibition of N-terminal FLAG-tagged wild type BRAF (unknown origin) expressed in baculovirus system using GST-MEK1(K96R) as substrate after 20 mins
Sequence of Serine/threonine-protein kinase B-raf (Homo sapiens, UniProt P15056) (P15056 whole entry): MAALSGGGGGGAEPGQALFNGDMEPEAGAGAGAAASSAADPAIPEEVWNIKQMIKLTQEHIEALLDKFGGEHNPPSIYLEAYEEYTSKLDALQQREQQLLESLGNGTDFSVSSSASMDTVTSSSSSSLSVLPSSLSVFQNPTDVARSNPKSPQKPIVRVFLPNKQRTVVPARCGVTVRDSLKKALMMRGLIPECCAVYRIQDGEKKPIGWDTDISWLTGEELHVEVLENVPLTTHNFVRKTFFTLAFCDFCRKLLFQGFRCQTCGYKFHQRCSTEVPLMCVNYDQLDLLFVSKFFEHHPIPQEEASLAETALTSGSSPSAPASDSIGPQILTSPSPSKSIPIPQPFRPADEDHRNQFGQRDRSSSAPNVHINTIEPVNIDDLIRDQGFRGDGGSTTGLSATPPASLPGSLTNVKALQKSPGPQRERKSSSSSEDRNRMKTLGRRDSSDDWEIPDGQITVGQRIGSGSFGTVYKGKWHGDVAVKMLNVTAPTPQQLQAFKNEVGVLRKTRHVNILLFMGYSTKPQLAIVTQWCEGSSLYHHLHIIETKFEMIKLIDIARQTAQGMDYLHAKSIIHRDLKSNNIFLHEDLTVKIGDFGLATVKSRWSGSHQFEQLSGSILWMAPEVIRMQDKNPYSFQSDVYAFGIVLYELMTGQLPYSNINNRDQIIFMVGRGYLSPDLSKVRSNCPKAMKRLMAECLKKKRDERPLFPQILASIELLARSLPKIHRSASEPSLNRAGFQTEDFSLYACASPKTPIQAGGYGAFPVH

[2] = molecular target: T1, Serine/threonine-protein kinase B-raf (Homo sapiens, UniProt P15056, V600E); test: Inhibition of BRAF V600E mutant in human HT-29 cells assessed as phosphorylation of MEK; format: cell-based
Target sequence in this assay (P15056 2-766 V600E limits assumed): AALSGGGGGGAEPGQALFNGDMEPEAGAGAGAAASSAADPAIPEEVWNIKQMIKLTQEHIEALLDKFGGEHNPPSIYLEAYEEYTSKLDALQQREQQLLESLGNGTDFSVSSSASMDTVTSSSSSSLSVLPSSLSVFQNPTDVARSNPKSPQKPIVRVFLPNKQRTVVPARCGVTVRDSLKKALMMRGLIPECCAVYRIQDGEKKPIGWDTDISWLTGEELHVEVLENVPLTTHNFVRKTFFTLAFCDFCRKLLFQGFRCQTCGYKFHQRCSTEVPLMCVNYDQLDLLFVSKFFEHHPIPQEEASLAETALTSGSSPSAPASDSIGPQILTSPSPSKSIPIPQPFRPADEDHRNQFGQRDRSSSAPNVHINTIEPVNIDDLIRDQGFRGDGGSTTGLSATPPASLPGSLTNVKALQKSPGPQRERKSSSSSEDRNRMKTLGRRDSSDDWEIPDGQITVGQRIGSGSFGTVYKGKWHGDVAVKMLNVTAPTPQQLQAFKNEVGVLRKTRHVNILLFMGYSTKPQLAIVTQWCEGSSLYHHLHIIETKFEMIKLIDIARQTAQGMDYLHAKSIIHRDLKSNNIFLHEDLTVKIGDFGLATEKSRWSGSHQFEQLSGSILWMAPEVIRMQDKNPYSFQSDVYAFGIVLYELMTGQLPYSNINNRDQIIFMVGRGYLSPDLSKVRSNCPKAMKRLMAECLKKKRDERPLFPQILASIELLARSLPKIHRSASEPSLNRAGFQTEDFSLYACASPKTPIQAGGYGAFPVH

[3] = system: Rattus norvegicus; test: Toxicity in F344 nude rat xenografted with human HMVII cells expressing NRAS Q61K/BRAF G469V mutant assessed as body weight change at 3.9 mg/kg, po bid for 14 days; format: organism-based; set-up: dose 3.9 mg/kg, route oral; conditions: in vivo, 336 h
[4] = Antitumor activity against human HMVII cells expressing NRAS Q61K/BRAF G469V mutant xenografted in F344 nude rat assessed as reduction in tumor size at 9.7 mg/kg, po bid for 14 days relative to control; format: functional, HMV-2
[5] = Antitumor activity against human HMVII cells expressing NRAS Q61K/BRAF G469V mutant xenografted in F344 nude rat assessed as reduction in tumor size at 3.9 mg/kg, po bid for 14 days relative to control; format: functional, HMV-2
[6] = system: Rattus norvegicus; test: Toxicity in F344 nude rat xenografted with human A375 cells expressing BRAF V600E mutant assessed as body weight change at 24.1 mg/kg, po bid for 14 days relative to control; format: organism-based, A-375; set-up: dose 24.1 mg/kg, route oral; conditions: in vivo, 336 h
[7] = system: Rattus norvegicus; test: Toxicity in F344 nude rat xenografted with human A375 cells expressing BRAF V600E mutant assessed as body weight change at 3.9 mg/kg, po bid for 14 days relative to control; format: organism-based, A-375; set-up: dose 3.9 mg/kg, route oral; conditions: in vivo, 336 h
[8] = system: Rattus norvegicus; test: Toxicity in F344 nude rat xenografted with human A375 cells expressing BRAF V600E mutant assessed as body weight change at 1.9 mg/kg, po bid for 14 days relative to control; format: organism-based, A-375; set-up: dose 1.9 mg/kg, route oral; conditions: in vivo, 336 h
[9] = system: A-375; test: Antitumor activity against human A375 cells expressing BRAF V600E mutant xenografted in F344 nude rat assessed as reduction in tumor size at 24.1 mg/kg, po bid for 14 days relative to control; format: functional
[10] = system: A-375; test: Antitumor activity against human A375 cells expressing BRAF V600E mutant xenografted in F344 nude rat assessed as reduction in tumor size at 9.7 mg/kg, po bid for 14 days relative to control; format: functional
[11] = system: A-375; test: Antitumor activity against human A375 cells expressing BRAF V600E mutant xenografted in F344 nude rat assessed as reduction in tumor size at 3.9 mg/kg, po bid for 14 days relative to control; format: functional
[12] = system: A-375; test: Antitumor activity against human A375 cells expressing BRAF V600E mutant xenografted in F344 nude rat assessed as reduction in tumor size at 1.9 mg/kg, po bid for 14 days relative to control; format: functional
[13] = AUC (0 to 24 hrs) in rat at 1 mg/kg, iv; format: ADME, organism-based; set-up: time < 24 hr, dose 1 mg/kg, route intravenous; conditions: plasma
[14] = Mean residence time in dog at 1 mg/kg, iv; format: ADME, organism-based, Canis lupus familiaris; set-up: dose 1 mg/kg, route intravenous; conditions: in vivo
[15] = Mean residence time in rat at 1 mg/kg, iv; format: ADME, organism-based; set-up: dose 1 mg/kg, route intravenous; conditions: in vivo
[16] = Total clearance in rat at 1 mg/kg, iv; format: ADME, organism-based; set-up: dose 1 mg/kg, route intravenous; conditions: in vivo
[17] = system: A-375; test: Antiproliferative activity against human A375 cells assessed as growth inhibition after 72 hrs by chemi-luminescence cell viability assay; format: functional; conditions: A-375, 72 h
[18] = Inhibition of NRASQ61k/BRAFG469V-mutant in human HMVII cells assessed as phosphorylation of ERK after 2 hrs by Western blotting analysis; format: cell-based
[19] = molecular target: T1, Serine/threonine-protein kinase B-raf; test: Inhibition of BRAF V600E mutant in human A375 cells assessed as phosphorylation of ERK after 2 hrs by Western blotting analysis; format: cell-based, A-375
Target sequence in this assay (P15056 2-766 V600E limits assumed): as above

[20] = molecular target: T1, Serine/threonine-protein kinase B-raf; test: Inhibition of BRAF V600E mutant in human A375 cells assessed as phosphorylation of MEK after 2 hrs by Western blotting analysis; format: cell-based, A-375
Target sequence in this assay (P15056 2-766 V600E limits assumed): as above

[21] = molecular target: T2, RAF proto-oncogene serine/threonine-protein kinase (Homo sapiens, UniProt P04049); test: Inhibition of CRAF (unknown origin) compound preincubated for 1 hr in presence of 1000 uM ATP
T2 sequence (P04049 whole entry): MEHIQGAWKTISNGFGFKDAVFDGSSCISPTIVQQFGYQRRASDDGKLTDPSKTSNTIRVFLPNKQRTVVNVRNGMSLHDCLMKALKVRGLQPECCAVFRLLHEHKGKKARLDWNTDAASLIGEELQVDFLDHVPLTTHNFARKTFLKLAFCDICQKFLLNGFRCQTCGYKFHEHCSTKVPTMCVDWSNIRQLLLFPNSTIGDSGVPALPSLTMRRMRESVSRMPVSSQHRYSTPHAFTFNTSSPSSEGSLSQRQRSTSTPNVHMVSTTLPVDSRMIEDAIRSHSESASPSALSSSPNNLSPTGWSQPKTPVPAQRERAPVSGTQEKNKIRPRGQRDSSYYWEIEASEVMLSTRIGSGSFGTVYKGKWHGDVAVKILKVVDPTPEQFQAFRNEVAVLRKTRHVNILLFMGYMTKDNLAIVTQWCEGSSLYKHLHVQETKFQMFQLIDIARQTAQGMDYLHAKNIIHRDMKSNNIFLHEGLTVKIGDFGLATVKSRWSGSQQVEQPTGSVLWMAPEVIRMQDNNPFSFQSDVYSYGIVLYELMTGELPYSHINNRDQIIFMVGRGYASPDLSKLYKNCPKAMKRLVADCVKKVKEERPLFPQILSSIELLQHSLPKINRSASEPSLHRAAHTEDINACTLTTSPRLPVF

[22] = molecular target: T2, RAF proto-oncogene serine/threonine-protein kinase; test: Inhibition of CRAF (unknown origin) compound preincubated for 1 hr in presence of 0.5 uM ATP
[23] = molecular target: T2, RAF proto-oncogene serine/threonine-protein kinase; test: Inhibition of CRAF (unknown origin) in presence of 1000 uM ATP by ELISA
[24] = molecular target: T2, RAF proto-oncogene serine/threonine-protein kinase; test: Binding affinity to CRAF (unknown origin) assessed as equilibrium dissociation constant by surface plasmon resonance analysis
[25] = molecular target: Mitogen-activated protein kinase 8 (Homo sapiens, UniProt P45983); test: Inhibition of C-terminal FLAG-tagged JNK1 (unknown origin) expressed in baculovirus system using c-jun as substrate after 60 mins
Sequence of Mitogen-activated protein kinase 8 (P45983 whole entry): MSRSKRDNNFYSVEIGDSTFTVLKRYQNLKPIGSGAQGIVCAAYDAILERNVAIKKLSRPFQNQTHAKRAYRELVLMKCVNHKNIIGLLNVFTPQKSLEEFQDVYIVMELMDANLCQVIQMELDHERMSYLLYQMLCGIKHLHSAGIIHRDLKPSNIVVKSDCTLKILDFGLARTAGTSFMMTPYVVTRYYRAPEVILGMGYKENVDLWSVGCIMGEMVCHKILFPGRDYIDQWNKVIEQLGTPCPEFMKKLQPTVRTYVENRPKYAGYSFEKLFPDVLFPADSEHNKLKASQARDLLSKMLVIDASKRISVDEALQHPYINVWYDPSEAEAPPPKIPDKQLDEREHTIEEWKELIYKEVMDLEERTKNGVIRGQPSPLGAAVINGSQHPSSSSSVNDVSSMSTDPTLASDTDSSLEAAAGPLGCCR

[26] = molecular target: CDK2/Cyclin A2 (Homo sapiens, UniProt P24941); test: Inhibition of CDK2/CycA (unknown origin) using histone H1 as substrate after 20 mins; format: protein-complex assay
[27] = molecular target: Cyclin-dependent kinase 1/cyclin B1 (Homo sapiens, UniProt P06493); test: Inhibition of CDK1/CycB (unknown origin) using histone H1 as substrate after 20 mins; format: protein-complex assay
[28] = molecular target: Serine/threonine-protein kinase Chk1 (Homo sapiens, UniProt O14757); test: Inhibition of CHK1 (unknown origin) using alpha-casein as substrate after 20 mins
[29] = molecular target: Protein kinase C theta type (Homo sapiens, UniProt Q04759); test: Inhibition of C-terminal FLAG-tagged PKC-theta (unknown origin) expressed in […] using MBP as substrate after 60 mins
[30] = molecular target: Inhibitor of nuclear factor kappa-B kinase subunit beta (Homo sapiens, UniProt O14920); test: Inhibition of C-terminal FLAG-tagged IKK beta (unknown origin) expressed in baculovirus system using IkappaBalpha as substrate after 40 mins
[31] = molecular target: Insulin receptor (Homo sapiens, UniProt P06213); test: Inhibition of Insulin receptor (unknown origin) using biotinylated poly-Glu-Tyr (4:1) as substrate preincubated for 5 mins measured after 12 hrs
Sequence of Insulin receptor (P06213 28-758 limits assumed): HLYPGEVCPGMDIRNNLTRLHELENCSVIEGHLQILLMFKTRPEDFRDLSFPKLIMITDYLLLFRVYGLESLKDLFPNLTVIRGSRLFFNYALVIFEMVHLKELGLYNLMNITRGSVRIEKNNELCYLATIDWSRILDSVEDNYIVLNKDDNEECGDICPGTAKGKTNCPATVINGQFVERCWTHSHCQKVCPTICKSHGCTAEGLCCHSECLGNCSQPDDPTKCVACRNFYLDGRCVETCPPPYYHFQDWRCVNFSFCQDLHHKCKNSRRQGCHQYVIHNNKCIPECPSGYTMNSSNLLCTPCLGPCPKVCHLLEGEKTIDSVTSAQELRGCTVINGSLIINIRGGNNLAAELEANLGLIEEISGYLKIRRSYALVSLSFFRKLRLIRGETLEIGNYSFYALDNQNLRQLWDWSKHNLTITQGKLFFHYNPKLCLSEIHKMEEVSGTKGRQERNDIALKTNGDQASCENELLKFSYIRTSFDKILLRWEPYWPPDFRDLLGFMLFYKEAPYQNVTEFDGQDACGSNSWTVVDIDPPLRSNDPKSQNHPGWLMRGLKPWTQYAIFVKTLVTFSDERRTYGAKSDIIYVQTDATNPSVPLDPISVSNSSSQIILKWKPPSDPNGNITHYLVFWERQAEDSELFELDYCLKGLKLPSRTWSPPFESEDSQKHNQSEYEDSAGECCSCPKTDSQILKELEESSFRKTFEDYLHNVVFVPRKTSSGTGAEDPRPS
Sequence of Insulin receptor (P06213 763-1382 limits assumed): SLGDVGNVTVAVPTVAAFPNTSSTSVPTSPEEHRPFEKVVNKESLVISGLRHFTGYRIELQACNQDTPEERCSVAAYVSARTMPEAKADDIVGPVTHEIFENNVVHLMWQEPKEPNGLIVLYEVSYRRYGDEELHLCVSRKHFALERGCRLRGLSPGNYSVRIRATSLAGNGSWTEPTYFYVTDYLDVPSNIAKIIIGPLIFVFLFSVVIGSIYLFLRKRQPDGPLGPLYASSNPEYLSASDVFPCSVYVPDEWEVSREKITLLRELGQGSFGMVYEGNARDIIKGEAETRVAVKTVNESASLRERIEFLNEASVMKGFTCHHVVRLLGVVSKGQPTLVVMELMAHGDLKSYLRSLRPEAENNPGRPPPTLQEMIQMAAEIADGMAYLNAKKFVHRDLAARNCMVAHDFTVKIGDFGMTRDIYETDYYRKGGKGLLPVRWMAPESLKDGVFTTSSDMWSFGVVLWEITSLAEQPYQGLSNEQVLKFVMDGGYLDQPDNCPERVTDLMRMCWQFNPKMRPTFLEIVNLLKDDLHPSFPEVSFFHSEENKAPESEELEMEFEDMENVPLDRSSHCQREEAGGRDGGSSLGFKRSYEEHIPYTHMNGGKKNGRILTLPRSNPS

[32] = molecular target: Hepatocyte growth factor receptor (Homo sapiens, UniProt P08581); test: Inhibition of c-Met receptor (unknown origin) using biotinylated poly-Glu-Tyr (4:1) as substrate preincubated for 5 mins measured after 12 hrs
[33] = molecular target: Angiopoietin-1 receptor (Homo sapiens, UniProt Q02763); test: Inhibition of TIE2 receptor (unknown origin) using biotinylated poly-Glu-Tyr (4:1) as substrate preincubated for 5 mins measured after 12 hrs
[34] = molecular target: Fibroblast growth factor receptor 3 (Homo sapiens, UniProt P22607); test: Inhibition of FGFR3 (unknown origin) using biotinylated poly-Glu-Tyr (4:1) as substrate preincubated for 5 mins measured after 12 hrs
Sequence of Fibroblast growth factor receptor 3 (P22607 whole entry): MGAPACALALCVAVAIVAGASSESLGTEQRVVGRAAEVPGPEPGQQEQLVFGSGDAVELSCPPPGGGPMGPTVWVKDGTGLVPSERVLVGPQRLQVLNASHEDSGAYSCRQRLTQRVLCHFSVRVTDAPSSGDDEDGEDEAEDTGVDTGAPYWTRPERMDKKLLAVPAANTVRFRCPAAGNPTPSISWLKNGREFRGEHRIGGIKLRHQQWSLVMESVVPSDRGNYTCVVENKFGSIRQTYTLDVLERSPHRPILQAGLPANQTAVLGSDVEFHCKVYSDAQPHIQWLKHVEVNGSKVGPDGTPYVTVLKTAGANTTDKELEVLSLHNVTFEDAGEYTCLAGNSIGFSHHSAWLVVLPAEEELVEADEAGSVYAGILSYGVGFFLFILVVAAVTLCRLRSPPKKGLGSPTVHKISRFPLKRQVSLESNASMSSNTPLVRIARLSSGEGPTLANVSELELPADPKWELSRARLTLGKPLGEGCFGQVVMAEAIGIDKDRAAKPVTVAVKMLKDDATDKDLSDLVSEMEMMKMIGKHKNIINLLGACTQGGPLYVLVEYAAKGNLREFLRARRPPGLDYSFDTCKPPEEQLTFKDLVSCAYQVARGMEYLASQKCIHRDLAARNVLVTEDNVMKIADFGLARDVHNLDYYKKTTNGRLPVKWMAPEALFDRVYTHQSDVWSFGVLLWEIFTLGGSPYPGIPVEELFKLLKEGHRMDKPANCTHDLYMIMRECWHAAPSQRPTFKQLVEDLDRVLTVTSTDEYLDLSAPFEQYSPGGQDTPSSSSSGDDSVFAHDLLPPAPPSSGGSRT

[35] = molecular target: T2, RAF proto-oncogene serine/threonine-protein kinase; test: Inhibition of N-terminal FLAG-tagged wild type C-RAF (unknown origin) expressed in baculovirus system using GST-MEK1(K96R) as substrate after 20 mins
[36] = molecular target: T1, Serine/threonine-protein kinase B-raf
Target sequence in this assay (P15056 whole entry V600E): as the sequence (P15056 whole entry) above, with V600E counted along it

[37] = molecular target: T2, RAF proto-oncogene serine/threonine-protein kinase
Description: Binding affinity to CRAF (unknown origin) assessed as dissociation half life by surface plasmon resonance analysis

Compound N#Cc1c(Oc2ccc(F)c(NC(=O)Cc3cccc(C(F)(F)F)c3)c2)ccc2nc(NC(=O)C3CC3)sc12 has an IC50 [1] of 8.3 nM, an IC50 [2] of 75 nM and an Activity [3] of -4.8 g. It also gave a T/C [4] of 26%, a T/C [5] of 52% and an Activity [6] of 18.6 g. It also gave an Activity [7] of 11.2 g, an Activity [8] of 9.3 g and a T/C [9] of -12.1%. For the same compound, the T/C [10] was -2.1%, the T/C [11] was 62.2% and the T/C [12] was 103%. The AUC(0-t) at 24 h [13] was 2510 ng·h/mL, the MRT [14] was 2.23 h and the MRT [15] was 4.69 h. For the same compound, the clearance [16] was 6.67 mL/min/kg, the GI50 [17] was 66 nM and the IC50 [18] was 50 nM. It also gave an IC50 [19] of 16 nM, an IC50 [20] of 12 nM and an IC50 [21] of 5 nM. It also gave an IC50 [22] of 1.5 nM, an IC50 [23] of 62 nM and a Kd [24] of 0.52 nM. For the same compound, the IC50 [25] was over 10000 nM, the IC50 [26] was 580 nM and the IC50 [27] was 790 nM. For the same compound, the IC50 [28] was 1400 nM, the IC50 [29] was over 10000 nM and the IC50 [30] was 3700 nM. For the same compound, the IC50 [31] was over 10000 nM, the IC50 [32] was over 10000 nM and the IC50 [33] was 740 nM. For the same compound, the IC50 [34] was 280 nM, the IC50 [35] was 1.4 nM and the IC50 [36] was 15 nM. It also gave a T1/2 [37] of 2.15 h.
